The values below come from PubChem BioAssay AID1645848.

In brackets after ≈: the same amount, converted by molar mass. Some results are limits rather than exact numbers.

The conditions of the data set: buffer; pH 7.4; 6.0 h; 150.0 µM.
Consider `O=C(NCCc1ccccc1)C1CCN(c2nc(-c3ccc(Br)cc3)cs2)CC1`, for which the solubility (kinetic) was 4.49 µg/mL (≈ 9.54 µM).
Turning to `Cc1ccc2oc(NC3=NC(c4ccccc4Cl)C4=C(CCCC4=O)N3)nc2c1` (stereo not drawn), the solubility (kinetic) was < 1 µg/mL.
Turning to `Cc1ccc(-c2nnc(Nc3ccc(Br)cc3)c3ccccc23)cc1S(=O)(=O)N1CCN(C)CC1`, the kinetic solubility was < 1 µg/mL.
For `NC(=O)C1CCN(c2nc(-c3ccccc3[N+](=O)[O-])cs2)CC1` the value was > 49 µg/mL; for `CCCn1cnc2cc(NCc3ccc(OC)cc3OC)ccc21`, 40.3 µg/mL (≈ 124 µM).
For `Fc1cc(Nc2nc(-c3ccncc3)nc3ccccc23)ccc1-c1cccnc1` the value was < 1 µg/mL; for `Cc1sc(NC(=O)Cc2ccc3c(c2)OCO3)nc1-c1ccc2c(c1)CCN2C(=O)C1CCCCC1`, < 1 µg/mL.
For `COc1ccc(C2c3c(oc4ccc(Cl)cc4c3=O)C(=O)N2CCCN(C)C)cc1OC` (stereo not drawn) the value was > 67 µg/mL.
With `COc1cc2c(cc1Oc1cccc(N(C)C)c1)NC(=O)C21CCN(c2cnccn2)CC1`, the solubility (kinetic) was determined as 2.21 µg/mL (≈ 4.97 µM).
As for `N#Cc1cc(NC(=O)Nc2nnc(-c3ccncc3)s2)ccc1-c1cn[nH]c1`, the kinetic solubility is < 1 µg/mL.
Turning to `CC(C)(C)C(O)C(Oc1ccc(Cl)cc1)n1cncn1` (stereo not drawn), the kinetic solubility is > 44 µg/mL.
For `O=S(=O)(Nc1cccc2cccnc12)c1ccc(NCc2ccc(Br)cc2O)cc1` the value was < 1 µg/mL.
For the compound `O=C(CNC(=O)c1cnccn1)NC1CCCc2c1[nH]c1ccc(Cl)cc21` (stereo not drawn), the kinetic solubility worked out at 1.46 µg/mL (≈ 3.79 µM).
For `Cc1sc2c(c1C)C(c1ccc(Cl)cc1)=N[C@@H](CC(=O)Nc1ccc(OCCOCCOCCOCCNc3cccc4c3C(=O)N(C3CCC(=O)NC3=O)C4=O)cc1)c1nnc(C)n1-2` (stereo partly drawn) the value was < 1 µg/mL.
For `COc1cccc(CNCc2cccn2-c2nnc(N3CCN(c4ccccc4)CC3)s2)c1` the value was 5.15 µg/mL (≈ 11.2 µM); for `NC(=O)C1CCN(c2cc(-c3ccc4c(c3)OCCCO4)ncn2)CC1`, > 52 µg/mL.
For `Cc1cnc(-c2ccccc2C(C)C)nc1NCc1ccc(-n2ccnn2)cc1` the value was 6.61 µg/mL (≈ 17.2 µM); for `c1ccc(-c2cn[nH]c2)cc1`, > 14 µg/mL.
For the compound `COc1cccc(-c2cn3c(n2)sc2cc(C(=O)NCCc4ccc(OC)c(OC)c4)ccc23)c1`, the solubility (kinetic) is < 1 µg/mL.
For `O=S(=O)(Nc1nc2ccccc2s1)c1ccc(NCc2cccc(Cl)c2O)cc1` the value was 1.1 µg/mL (≈ 2.46 µM); for `N#Cc1ccccc1CSc1nc2ncc(Br)cc2[nH]1`, 1.09 µg/mL (≈ 3.16 µM); for `CN(C)C(=O)c1nc(-c2ccc(Cl)cc2Cl)c2cnccn12`, > 59 µg/mL.
For `CNc1oc(-c2cccc3ccccc23)nc1C(=O)OC` the value was < 1 µg/mL.
For `Cc1nc(NC2CCCCC2)c2nc(-c3ccccc3)n(CCN(C)C)c2n1` the value was > 56 µg/mL; for `CC(C)CC(=O)Nc1n[nH]c2c1CN(C(=O)C1CCN(C)CC1)C2(C)C`, > 53 µg/mL.
`C[C@@]12O[C@@H](C[C@]1(O)CO)n1c3ccccc3c3c4c(c5c6ccccc6n2c5c31)CNC4=O` registered a kinetic solubility of 15.2 µg/mL (≈ 34.6 µM).
For `NC1CCN(c2nc(-c3ccc(Br)cc3)cs2)CC1` the value was 8.9 µg/mL (≈ 26.3 µM).
For `CCN(CC)C(=O)c1ccc(O)c(OC)c1` the value was 27.3 µg/mL (≈ 122 µM).
For `Cn1nnnc1Sc1ncnc2scc(-c3cccc(S(C)(=O)=O)c3)c12` the value was 44.8 µg/mL (≈ 111 µM); for `NC(=O)C1CCN(c2nc(-c3ccccc3F)cs2)CC1`, 4.65 µg/mL (≈ 15.2 µM).
`CC(C)(C)NS(=O)(=O)c1ccc(-c2ccc3[nH]nc(N)c3c2)cc1`: the kinetic solubility is > 51 µg/mL.
Take `COc1cc(Nc2nc(-c3ccncc3)nc3ccccc23)ccc1N1CCN(C)CC1`: the kinetic solubility was > 63 µg/mL.
For `O=S(=O)(Nc1nccs1)c1ccc(NCc2cccc(Cl)c2Cl)cc1` the value was < 1 µg/mL; for `CC1=C(C(=O)Nc2nncs2)C(c2ccccc2Br)N=C(Nc2nc3ccccc3o2)N1` (stereo not drawn), < 1 µg/mL; for `O=C(NCc1ccncc1)c1nc(-c2cccnc2)c2cnccn12`, 40.8 µg/mL (≈ 124 µM).
For `O=C(Cc1c[nH]c2ncc(-c3ccc(Cl)cc3)cc12)NCc1cccnc1` the value was 17.5 µg/mL (≈ 46.4 µM).
In turn, `COC(=O)c1cc(Cl)ccc1NC(=O)CSc1ncc(S(=O)(=O)c2ccc(Br)cc2)c(=O)[nH]1` registered a solubility (kinetic) of 59.1 µg/mL (≈ 103 µM).
For `CC1=C(C(=O)Nc2nnc(-c3ccccc3)s2)C(c2[nH]ncc2Cl)N=C(Nc2nc3ccccc3o2)N1` (stereo not drawn) the value was < 1 µg/mL.
For `CCOC(=O)c1ccc2c(c1)c(C(C)=O)c(C)n2-c1ccc(OC)cc1` the value was < 1 µg/mL; for `COc1cc(C(=O)N2CCN(c3cc(Cl)ccc3Cl)CC2)cc(OC)c1OC`, < 1 µg/mL; for `COc1ccc(OC)c(-c2nnc3n2N=C(c2c(OC)cccc2OC)CS3)c1`, 2.63 µg/mL (≈ 6.37 µM).
`O=C(Nc1ccc(N2CCC(N3CCCCC3)CC2)c(C(=O)O)c1)c1ccc(Br)cc1` returned a solubility (kinetic) of 34 µg/mL (≈ 69.9 µM).
Consider `N#Cc1ccc(-c2csc(N3CCC(C(N)=O)CC3)n2)cc1`, for which the solubility (kinetic) turned out to be 4.34 µg/mL (≈ 13.9 µM).
For `CC1=C(C(=O)Nc2nncs2)C(c2nn(C)cc2Cl)N=C(Nc2nc3ccccc3o2)N1` (stereo not drawn) the value was 16.3 µg/mL (≈ 34.6 µM); for `CNC(=O)C1=C(C)NC(Nc2nc3ccccc3o2)=NC1c1[nH]ncc1Cl` (stereo not drawn), > 57 µg/mL; for `Cc1ccc(C(=O)[C@H]2CC[C@@H](C(=O)Nc3ccc(S(=O)(=O)Nc4nccs4)cc3)C2)cc1C`, 2.28 µg/mL (≈ 4.72 µM).
Take `NC(=O)COc1cccc(C2CC(=O)Nc3nc(N4CCCCC4)sc32)c1` (stereo not drawn): the solubility (kinetic) was > 57 µg/mL.
For `CCO.Nc1nc(N)c2cc(Sc3ccc4ccccc4c3)ccc2n1` the value was < 1 µg/mL; for `CC(C)C[C@H]1C(=O)N2CCC[C@H]2[C@]2(O)O[C@](NC(=O)[C@@H]3C=C4c5cccc6[nH]c(Br)c(c56)C[C@H]4N(C)C3)(C(C)C)C(=O)N12`, < 1 µg/mL; for `NC1(c2ccc(NC(=O)c3ccnc(-c4cc(C(=O)O)ccn4)c3)cc2)CC1`, 2.79 µg/mL (≈ 7.46 µM).
Consider `COc1c(C)c2c(c(O)c1C/C=C(\C)CCC(=O)OCCN1CCOCC1)C(=O)OC2`, for which the kinetic solubility is > 64 µg/mL.
For `O=C(Nc1ccc(Br)cc1)c1ccc(F)c(S(=O)(=O)NC2CCCCCC2)c1` the value was < 1 µg/mL.
For `Oc1ccc(CNc2ccc(F)cc2F)c2cccnc12` the value was 1.22 µg/mL (≈ 4.27 µM); for `Cc1ccc(C)c(NC2=C(c3ccc(C(F)(F)F)cc3)C(=O)c3ccccc32)c1`, < 1 µg/mL; for `O=C(Nc1nc(-c2ccccc2)cs1)c1ccncc1NS(=O)(=O)c1cccc2cccnc12`, 39.8 µg/mL (≈ 81.6 µM).
With `Cc1cnc(-c2ccccc2C(F)F)nc1NCC1CN(c2cnccn2)C1`, the kinetic solubility was > 56 µg/mL.
Turning to `O=C(CCCCn1c(=O)[nH]c2ccsc2c1=O)N1CCN(c2cccc(Cl)c2)CC1`, the kinetic solubility was found to be 11.9 µg/mL (≈ 26.7 µM).
For `CC(=O)c1c(C)[nH]c(C(=O)Nc2cccc([S+](=O)([O-])Nc3ccccn3)c2)c1C` the value was > 61 µg/mL; for `Cc1ccc(NS(=O)(=O)c2ccc(C(=O)Nc3nc(-c4ccccc4)cs3)cc2)cc1`, < 1 µg/mL; for `O=C1c2ccccc2-n2c1nc1ccccc1c2=O`, 8.45 µg/mL (≈ 34 µM).
For `O=C(Nc1ccccc1)C1CC(=O)N(c2n[nH]c3cc(Br)ccc23)C1` (stereo not drawn) the value was < 1 µg/mL.
On to `COc1ccccc1-c1[nH]nc2ncc(-c3ccc(C)cc3)nc12`, for which the solubility (kinetic) is < 1 µg/mL.
In the case of `COc1ccc(-c2cc(-c3cccc4[nH]ncc34)cn3cncc23)cn1`, the kinetic solubility turned out to be 5.52 µg/mL (≈ 16.2 µM).
Compound `COc1ccc(S(=O)(=O)Nc2cnccc2C(=O)Nc2nc(-c3ccccc3)cs2)cc1` came in with a kinetic solubility of 54.1 µg/mL (≈ 116 µM).
`CCOc1ccc(N2C(=O)c3n[nH]c(-c4cccs4)c3C2c2cccc(F)c2)cc1` (stereo not drawn): the kinetic solubility is < 1 µg/mL.
As for `COc1cc2nccc(Oc3ccc(NC(=O)Nc4cc(C)on4)c(Cl)c3)c2cc1OC`, the kinetic solubility was < 1 µg/mL.
As for `COc1ccccc1N1CCN(c2ccc3cc(S(=O)(=O)N4CCCCC4)ccc3n2)CC1`, the kinetic solubility was < 1 µg/mL.
With `O=c1[nH]c(N2CCOCC2)nc2c1CCN(Cc1ccc(Cl)cc1F)CC2`, the solubility (kinetic) was > 58 µg/mL.
Consider `O=C(O)c1ccc(-c2c[nH]c3ncc(-c4ccccc4)cc23)cc1C1CCCC1`, for which the solubility (kinetic) is 7.57 µg/mL (≈ 19.8 µM).
In turn, `O=S(=O)(Nc1nccs1)c1ccc(NCc2ccccc2)cc1` displayed a solubility (kinetic) of 31.9 µg/mL (≈ 92.4 µM).
`COc1ccccc1CNc1ccc(N2CCCCC2)cc1` gave a solubility (kinetic) of 12.9 µg/mL (≈ 43.5 µM).
For `COc1ccc(S(=O)(=O)N2CCCCCC2)cc1NC(=O)Cc1n[nH]c(=O)c2ccccc12` the value was 8.46 µg/mL (≈ 18 µM); for `CCN1C(=O)c2ccccc2S(=O)c2ccc(C(=O)NCc3ccc(OC)cc3)cc21` (stereo not drawn), 10.4 µg/mL (≈ 23.9 µM).
For `Cc1ccc(-c2cc(C(=O)NCc3cnn(C)c3C)c3cc(Br)ccc3n2)cc1` the value was < 1 µg/mL.
For `CN(C)c1cccc(-c2cnc(N3CCC(c4ncc[nH]4)CC3)s2)c1` the value was 32.7 µg/mL (≈ 92.5 µM); for `CC(=O)Nc1nc(C)c(-c2ccc(Cl)c(S(=O)(=O)NCCO)c2)s1`, > 57 µg/mL.
In the case of `O=C(Nc1ccc(-c2nc3cc(NC(=O)c4ccccc4Cl)ccc3o2)cc1)c1ccccc1Cl`, the kinetic solubility is < 1 µg/mL.
For `NC(=O)C1CCN(c2ncc(-c3ccc(Br)cc3)s2)CC1` the value was 1.62 µg/mL (≈ 4.42 µM); for `Cc1cc(C)nc(NC(=S)N2CCN(c3cccc(OC(F)F)c3)CC2)c1`, 11.6 µg/mL (≈ 29.4 µM).
For the compound `CCOc1ccc(CCNC(=O)c2cc3cccnc3n2Cc2cccc(C)c2)cc1OCC`, the kinetic solubility is < 1 µg/mL.
As to `O=C(c1ccc2c(c1)ncn2-c1ccc(Cl)cc1)N1CCCCC1`, the kinetic solubility is > 50 µg/mL.
Take `COc1ccc(-n2c(C)cc(C3=NNC(=NC4CC4)SC3)c2C)cc1`: the kinetic solubility worked out at 14 µg/mL (≈ 39.5 µM).
For `Clc1cccc(Nc2nc(-c3ccncc3)nc3ccccc23)c1` the value was < 1 µg/mL; for `CSc1ccc(/C=C/c2nc3ccccc3n2S(=O)(=O)c2cccc(Cl)c2)cc1`, < 1 µg/mL.
Consider `Cc1nn2c(c1-c1ccccc1-c1ccccc1)N(CCC(C)C)CCC2`, for which the solubility (kinetic) was < 1 µg/mL.
For `Cc1ccc(-c2csc(NC(=O)c3ccccc3NS(=O)(=O)c3ccc(C)cc3)n2)cc1` the value was < 1 µg/mL.
For `O=C(Nc1nc(-c2ccccc2)cs1)c1ccncc1NS(=O)(=O)c1ccc2c(c1)CCC2` the value was 5.8 µg/mL (≈ 12.2 µM); for `Cc1noc(C)c1-c1ccc2ncnc(NC(C)c3ccccc3)c2c1` (stereo not drawn), 12.6 µg/mL (≈ 36.7 µM).
